Legend:
[1] = molecular target: T1, CSK (Homo sapiens, UniProt P41240); test: KinomeScan; assay type: binding; settings: read-out: % control
T1 construct: purchased DiscoveRx KINOMEscan

[2] = molecular target: T2, IRAK4 (Homo sapiens, UniProt Q9NWZ3); test: KinomeScan; assay type: binding; settings: read-out: % control
T2 construct: purchased DiscoveRx KINOMEscan

[3] = molecular target: T3, ERBB4 (Homo sapiens, UniProt Q15303); test: KinomeScan; assay type: binding; settings: read-out: % control
T3 construct: purchased DiscoveRx KINOMEscan

[4] = molecular target: T4, DRAK2 (Homo sapiens, UniProt O94768); test: KinomeScan; assay type: binding; settings: read-out: % control
T4 construct: purchased DiscoveRx KINOMEscan

[5] = molecular target: T5, PDPK1 (Homo sapiens, UniProt O15530); test: KinomeScan; assay type: binding; settings: read-out: % control
T5 construct: purchased DiscoveRx KINOMEscan

[6] = molecular target: T6, CSF1R-autoinhibited (Homo sapiens, UniProt P07333); test: KinomeScan; assay type: binding; settings: read-out: % control
T6 construct: purchased DiscoveRx KINOMEscan
T6 sequence (P07333 539-972 limits assumed): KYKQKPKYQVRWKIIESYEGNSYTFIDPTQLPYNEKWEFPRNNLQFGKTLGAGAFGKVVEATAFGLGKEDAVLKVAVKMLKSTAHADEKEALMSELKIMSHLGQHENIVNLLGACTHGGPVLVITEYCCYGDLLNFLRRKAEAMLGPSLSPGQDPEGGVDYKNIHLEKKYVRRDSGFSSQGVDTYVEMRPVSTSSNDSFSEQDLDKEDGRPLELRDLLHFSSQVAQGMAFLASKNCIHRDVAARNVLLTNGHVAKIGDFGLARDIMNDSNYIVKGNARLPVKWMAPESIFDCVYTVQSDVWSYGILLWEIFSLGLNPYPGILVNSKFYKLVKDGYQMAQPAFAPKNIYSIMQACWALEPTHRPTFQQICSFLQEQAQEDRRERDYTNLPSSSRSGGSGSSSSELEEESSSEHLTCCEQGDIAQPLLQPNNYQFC

[7] = molecular target: T7, PCTK3 (Homo sapiens, UniProt Q07002); test: KinomeScan; assay type: binding; settings: read-out: % control
T7 construct: purchased DiscoveRx KINOMEscan

[8] = molecular target: T8, PLK2 (Homo sapiens, UniProt Q9NYY3); test: KinomeScan; assay type: binding; settings: read-out: % control
T8 construct: purchased DiscoveRx KINOMEscan

[9] = molecular target: T9, SYK (Homo sapiens, UniProt P43405); test: KinomeScan; assay type: binding; settings: read-out: % control
T9 construct: purchased DiscoveRx KINOMEscan

[10] = tested on: H1975 (EGFRL858R/T790M); test: Anti-proliferation, NSCLC cell lines (CellTiter-Glo); assay type: cell-based, human
Description: The human cancer cell lines H1975, HCC827, H2122, CHO, CHL and H1355 were purchased from the American Type Culture Collection (ATCC) (Manassas, VA, USA). PC9 cell line was purchased from the Sigma-Aldrich (St. Louis, MO, USA). A549, H3255 were purchased from Cobioer Biosciences CO., LTD (Nanjing, China). […] A549 and H1355 were cultured in F-12K Nutrient Mixture (kaighn's Modification) (Gibco, USA) with 10% FBS and supplemented with 2% L-glutamine and 1% pen/strep. H3255 was cultured in BEGM media (LONZA, USA) with 10% FBS and supplemented with 2% L-glutamine and 1% pen/strep.

[11] = tested on: NSCLC cell lines (H1975, HCC827, PC9, H3255; EGFR wt lines); test: Apoptosis effect examination (Caspase-3 and PARP cleavage); assay type: cell-based, human
From the text: We then examined CHMFL-EGFR-26's effect on cell cycle progression and apoptosis.
Cells were then washed in PBS and lysed in cell lysis buffer. PARP, Caspase-3, GAPDH antibodies were used for immunoblotting.

[12] = molecular target: T10, OSR1 (Homo sapiens, UniProt O95747); test: KinomeScan; assay type: binding; settings: read-out: % control
T10 construct: purchased DiscoveRx KINOMEscan

[13] = molecular target: T11, PFTK1 (Homo sapiens, UniProt O94921); test: KinomeScan; assay type: binding; settings: read-out: % control
T11 construct: purchased DiscoveRx KINOMEscan

[14] = molecular target: T12, EGFR (Homo sapiens, UniProt P00533); test: KinomeScan; assay type: binding; settings: read-out: % control
T12 construct: purchased DiscoveRx KINOMEscan

[15] = molecular target: T13, ZAK (Homo sapiens, UniProt Q9NYL2); test: KinomeScan; assay type: binding; settings: read-out: % control
T13 construct: purchased DiscoveRx KINOMEscan
T13 sequence (Q9NYL2 whole entry): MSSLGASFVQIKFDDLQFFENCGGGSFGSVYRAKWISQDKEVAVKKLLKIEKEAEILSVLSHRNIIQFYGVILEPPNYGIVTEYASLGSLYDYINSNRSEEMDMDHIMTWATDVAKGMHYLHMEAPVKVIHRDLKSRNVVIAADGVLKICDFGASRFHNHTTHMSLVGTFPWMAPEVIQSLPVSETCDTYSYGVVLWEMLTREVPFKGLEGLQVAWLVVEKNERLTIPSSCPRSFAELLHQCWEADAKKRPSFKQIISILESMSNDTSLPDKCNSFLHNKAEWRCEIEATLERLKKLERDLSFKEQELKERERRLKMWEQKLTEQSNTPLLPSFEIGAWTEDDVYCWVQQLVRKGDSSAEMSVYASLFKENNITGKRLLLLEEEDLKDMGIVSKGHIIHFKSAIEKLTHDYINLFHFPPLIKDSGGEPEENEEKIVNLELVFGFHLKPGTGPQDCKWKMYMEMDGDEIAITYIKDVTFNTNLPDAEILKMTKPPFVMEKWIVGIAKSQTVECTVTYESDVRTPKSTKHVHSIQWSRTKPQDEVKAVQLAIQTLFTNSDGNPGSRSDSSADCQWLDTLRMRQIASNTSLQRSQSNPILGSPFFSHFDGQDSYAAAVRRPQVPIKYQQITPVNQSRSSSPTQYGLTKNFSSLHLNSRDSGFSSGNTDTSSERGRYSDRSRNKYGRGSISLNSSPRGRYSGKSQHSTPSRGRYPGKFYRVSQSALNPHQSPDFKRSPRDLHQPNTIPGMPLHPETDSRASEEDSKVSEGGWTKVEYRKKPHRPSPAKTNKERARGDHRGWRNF

[16] = molecular target: T14, CSNK1G2 (Homo sapiens, UniProt P78368); test: KinomeScan; assay type: binding; settings: read-out: % control
T14 construct: purchased DiscoveRx KINOMEscan

[17] = molecular target: T15, PAK2 (Homo sapiens, UniProt Q13177); test: KinomeScan; assay type: binding; settings: read-out: % control
T15 construct: purchased DiscoveRx KINOMEscan

[18] = molecular target: T16, p38-beta (Homo sapiens, UniProt Q15759); test: KinomeScan; assay type: binding; settings: read-out: % control
T16 construct: purchased DiscoveRx KINOMEscan

[19] = molecular target: T17, EIF2AK1 (Homo sapiens, UniProt Q9BQI3); test: KinomeScan; assay type: binding; settings: read-out: % control
T17 construct: purchased DiscoveRx KINOMEscan

[20] = molecular target: T18, TIE1 (Homo sapiens, UniProt P35590); test: KinomeScan; assay type: binding; settings: read-out: % control
T18 construct: purchased DiscoveRx KINOMEscan

[21] = molecular target: T19, RSK3(Kin.Dom.2-C-terminal) (Homo sapiens, UniProt Q15349); test: KinomeScan; assay type: binding; settings: read-out: % control
T19 construct: RSK3(Kin.Dom.2-C-terminal); purchased DiscoveRx KINOMEscan

[22] = molecular target: T20, PIK4CB (Homo sapiens, UniProt Q9UBF8); test: KinomeScan; assay type: binding; settings: read-out: % control
T20 construct: purchased DiscoveRx KINOMEscan

[23] = molecular target: T21, ULK3 (Homo sapiens, UniProt Q6PHR2); test: KinomeScan; assay type: binding; settings: read-out: % control
T21 construct: purchased DiscoveRx KINOMEscan

[24] = molecular target: T22, DYRK1A (Homo sapiens, UniProt Q13627); test: KinomeScan; assay type: binding; settings: read-out: % control
T22 construct: purchased DiscoveRx KINOMEscan

[25] = molecular target: T23, FLT3(D835V) (Homo sapiens, UniProt P36888, D835V); test: KinomeScan; assay type: binding; settings: read-out: % control
T23 construct: purchased DiscoveRx KINOMEscan

[26] = molecular target: T24, YANK3 (Homo sapiens, UniProt Q86UX6); test: KinomeScan; assay type: binding; settings: read-out: % control
T24 construct: purchased DiscoveRx KINOMEscan

[27] = molecular target: T25, ABL1-nonphosphorylated (Homo sapiens, UniProt P00519); test: KinomeScan; assay type: binding; settings: read-out: % control
T25 construct: purchased DiscoveRx KINOMEscan
T25 sequence (P00519 whole entry): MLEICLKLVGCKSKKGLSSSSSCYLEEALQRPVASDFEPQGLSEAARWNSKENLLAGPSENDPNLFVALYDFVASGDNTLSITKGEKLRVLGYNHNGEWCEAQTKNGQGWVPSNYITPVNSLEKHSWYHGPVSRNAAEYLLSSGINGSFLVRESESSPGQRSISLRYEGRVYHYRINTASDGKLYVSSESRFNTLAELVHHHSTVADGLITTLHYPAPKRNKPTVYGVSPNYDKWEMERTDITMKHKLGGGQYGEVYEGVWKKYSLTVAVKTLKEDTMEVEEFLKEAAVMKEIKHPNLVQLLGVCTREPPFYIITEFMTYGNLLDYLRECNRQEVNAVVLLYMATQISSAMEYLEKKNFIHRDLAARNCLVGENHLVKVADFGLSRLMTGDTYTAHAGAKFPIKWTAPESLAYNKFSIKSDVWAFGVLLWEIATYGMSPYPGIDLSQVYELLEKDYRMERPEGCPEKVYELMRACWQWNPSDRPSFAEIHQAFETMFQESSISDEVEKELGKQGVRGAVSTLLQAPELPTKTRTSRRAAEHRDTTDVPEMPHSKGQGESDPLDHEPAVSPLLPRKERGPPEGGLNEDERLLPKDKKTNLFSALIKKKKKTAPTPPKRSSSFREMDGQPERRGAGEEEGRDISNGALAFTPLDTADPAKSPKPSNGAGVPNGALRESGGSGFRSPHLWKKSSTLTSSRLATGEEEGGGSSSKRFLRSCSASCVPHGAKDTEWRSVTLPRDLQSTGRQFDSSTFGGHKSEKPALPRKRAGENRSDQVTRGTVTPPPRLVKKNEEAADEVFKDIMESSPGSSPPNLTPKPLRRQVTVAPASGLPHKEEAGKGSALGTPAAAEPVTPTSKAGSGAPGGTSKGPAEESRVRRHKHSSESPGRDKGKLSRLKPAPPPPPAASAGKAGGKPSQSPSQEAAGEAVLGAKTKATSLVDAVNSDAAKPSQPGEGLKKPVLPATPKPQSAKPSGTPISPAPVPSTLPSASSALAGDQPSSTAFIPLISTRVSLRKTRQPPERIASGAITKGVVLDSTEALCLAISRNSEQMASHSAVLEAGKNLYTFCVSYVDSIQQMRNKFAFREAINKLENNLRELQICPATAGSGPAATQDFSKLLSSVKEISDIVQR

[28] = molecular target: T26, LKB1 (Homo sapiens, UniProt Q15831); test: KinomeScan; assay type: binding; settings: read-out: % control
T26 construct: purchased DiscoveRx KINOMEscan

[29] = molecular target: T27, AMPK-alpha2 (Homo sapiens, UniProt P54646); test: KinomeScan; assay type: binding; settings: read-out: % control
T27 construct: purchased DiscoveRx KINOMEscan
T27 sequence (P54646 whole entry): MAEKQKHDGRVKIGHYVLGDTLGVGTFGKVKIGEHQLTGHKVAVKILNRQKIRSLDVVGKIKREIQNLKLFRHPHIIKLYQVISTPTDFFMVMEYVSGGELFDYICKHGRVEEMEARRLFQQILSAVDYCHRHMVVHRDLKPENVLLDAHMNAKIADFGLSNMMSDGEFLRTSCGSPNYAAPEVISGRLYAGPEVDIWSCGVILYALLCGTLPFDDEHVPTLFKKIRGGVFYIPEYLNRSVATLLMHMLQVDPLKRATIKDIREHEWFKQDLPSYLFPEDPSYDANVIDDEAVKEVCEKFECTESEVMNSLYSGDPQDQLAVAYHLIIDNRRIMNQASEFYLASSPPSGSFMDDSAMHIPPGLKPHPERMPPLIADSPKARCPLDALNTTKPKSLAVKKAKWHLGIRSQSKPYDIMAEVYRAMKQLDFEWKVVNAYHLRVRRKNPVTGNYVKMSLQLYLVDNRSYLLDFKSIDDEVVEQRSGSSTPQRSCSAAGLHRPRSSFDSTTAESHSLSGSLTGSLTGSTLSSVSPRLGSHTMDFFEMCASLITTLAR

[30] = tested on: FLT3(ITD); test: KinomeScan; assay type: binding; settings: 1μM
[31] = molecular target: T28, CDK3 (Homo sapiens, UniProt Q00526); test: KinomeScan; assay type: binding; settings: read-out: % control
T28 construct: purchased DiscoveRx KINOMEscan

[32] = molecular target: T29, ASK1 (Homo sapiens, UniProt Q99683); test: KinomeScan; assay type: binding; settings: read-out: % control
T29 construct: purchased DiscoveRx KINOMEscan
T29 sequence (Q99683 whole entry): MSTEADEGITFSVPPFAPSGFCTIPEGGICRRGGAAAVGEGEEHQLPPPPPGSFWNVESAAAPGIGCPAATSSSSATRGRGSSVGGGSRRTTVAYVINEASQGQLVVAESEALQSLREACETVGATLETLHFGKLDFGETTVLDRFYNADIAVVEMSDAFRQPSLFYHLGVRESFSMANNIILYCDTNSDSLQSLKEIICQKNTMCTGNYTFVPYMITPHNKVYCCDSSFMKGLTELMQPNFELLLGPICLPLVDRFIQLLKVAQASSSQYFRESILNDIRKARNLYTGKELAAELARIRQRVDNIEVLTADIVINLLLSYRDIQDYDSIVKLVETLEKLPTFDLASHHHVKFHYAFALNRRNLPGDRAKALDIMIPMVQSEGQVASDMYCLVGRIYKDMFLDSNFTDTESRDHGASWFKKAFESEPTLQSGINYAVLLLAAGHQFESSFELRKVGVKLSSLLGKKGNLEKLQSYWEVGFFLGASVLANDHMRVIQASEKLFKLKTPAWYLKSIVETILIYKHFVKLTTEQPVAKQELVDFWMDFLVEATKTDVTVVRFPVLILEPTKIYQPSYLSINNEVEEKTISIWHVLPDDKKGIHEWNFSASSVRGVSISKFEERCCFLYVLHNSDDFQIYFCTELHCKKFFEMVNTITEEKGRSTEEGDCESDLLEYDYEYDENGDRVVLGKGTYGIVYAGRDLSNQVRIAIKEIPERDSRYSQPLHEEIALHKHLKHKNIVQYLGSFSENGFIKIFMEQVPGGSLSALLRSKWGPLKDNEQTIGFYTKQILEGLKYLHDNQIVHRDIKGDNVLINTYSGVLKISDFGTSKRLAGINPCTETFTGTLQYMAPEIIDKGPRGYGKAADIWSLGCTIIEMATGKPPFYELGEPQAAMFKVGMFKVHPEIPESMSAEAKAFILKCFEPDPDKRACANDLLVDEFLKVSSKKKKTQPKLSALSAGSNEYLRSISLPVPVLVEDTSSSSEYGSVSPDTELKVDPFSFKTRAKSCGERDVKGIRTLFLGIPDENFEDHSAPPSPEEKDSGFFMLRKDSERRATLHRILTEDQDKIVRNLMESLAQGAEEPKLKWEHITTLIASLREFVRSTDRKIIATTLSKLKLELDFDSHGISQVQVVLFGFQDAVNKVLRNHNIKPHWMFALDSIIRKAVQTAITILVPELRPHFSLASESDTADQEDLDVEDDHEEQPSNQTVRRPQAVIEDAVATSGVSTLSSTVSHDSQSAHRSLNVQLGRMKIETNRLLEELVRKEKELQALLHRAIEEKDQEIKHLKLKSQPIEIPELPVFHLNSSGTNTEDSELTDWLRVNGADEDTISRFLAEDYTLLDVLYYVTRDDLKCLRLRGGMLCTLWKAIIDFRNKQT

[33] = molecular target: T30, PIK3CG (Homo sapiens, UniProt P48736); test: KinomeScan; assay type: binding; settings: read-out: % control
T30 construct: purchased DiscoveRx KINOMEscan

[34] = molecular target: T31, CAMKK1 (Homo sapiens, UniProt Q8N5S9); test: KinomeScan; assay type: binding; settings: read-out: % control
T31 construct: purchased DiscoveRx KINOMEscan

[35] = molecular target: T32, TSSK1B (Homo sapiens, UniProt Q9BXA7); test: KinomeScan; assay type: binding; settings: read-out: % control
T32 construct: purchased DiscoveRx KINOMEscan
T32 sequence (Q9BXA7 whole entry): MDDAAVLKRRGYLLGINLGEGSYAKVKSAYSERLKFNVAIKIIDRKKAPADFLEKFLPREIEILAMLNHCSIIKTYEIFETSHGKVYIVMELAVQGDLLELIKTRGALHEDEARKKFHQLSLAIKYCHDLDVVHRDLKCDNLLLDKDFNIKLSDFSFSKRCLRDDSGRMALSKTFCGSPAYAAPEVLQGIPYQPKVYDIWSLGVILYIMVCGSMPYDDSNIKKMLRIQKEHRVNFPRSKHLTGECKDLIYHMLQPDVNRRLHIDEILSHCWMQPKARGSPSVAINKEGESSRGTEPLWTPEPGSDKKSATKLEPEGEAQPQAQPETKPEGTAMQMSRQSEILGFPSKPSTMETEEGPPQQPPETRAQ

[36] = tested on: Parental BaF3; test: Anti-proliferation, BaF3 isogenic cell lines (CellTiter-Glo); assay type: cell-based; settings: Mus musculus
[37] = molecular target: T33, CSNK1E (Homo sapiens, UniProt P49674); test: KinomeScan; assay type: binding; settings: read-out: % control
T33 construct: purchased DiscoveRx KINOMEscan
T33 sequence (P49674 whole entry): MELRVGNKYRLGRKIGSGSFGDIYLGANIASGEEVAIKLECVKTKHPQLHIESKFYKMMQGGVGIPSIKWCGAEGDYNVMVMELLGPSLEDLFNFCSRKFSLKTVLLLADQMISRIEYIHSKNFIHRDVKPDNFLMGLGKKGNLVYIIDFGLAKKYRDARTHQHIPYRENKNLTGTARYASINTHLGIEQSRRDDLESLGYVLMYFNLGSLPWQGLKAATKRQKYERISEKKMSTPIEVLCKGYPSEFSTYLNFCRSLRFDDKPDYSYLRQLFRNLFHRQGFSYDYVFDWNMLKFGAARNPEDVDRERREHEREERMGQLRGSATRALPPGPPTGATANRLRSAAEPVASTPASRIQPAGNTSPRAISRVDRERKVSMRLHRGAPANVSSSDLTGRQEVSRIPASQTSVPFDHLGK

**Q.** How did the remaining binding at 1 µM [1] turn out when C=CC(=O)N1CCC[C@@H](n2nc(-c3ccc(OCc4cccc(C)n4)c(Cl)c3)c3c(N)ncnc32)C1 [CHMFL-EGFR-26] was run?
**A.** The remaining binding at 1 µM was 32%.

**Q.** And the remaining binding at 1 µM [2]?
**A.** Its remaining binding at 1 µM is 100%.

**Q.** And the remaining binding at 1 µM [3]?
**A.** Its remaining binding at 1 µM is 0.45%.

**Q.** What about the remaining binding at 1 µM [4] of the same molecule?
**A.** The remaining binding at 1 µM was 91%.

**Q.** And the remaining binding at 1 µM [5]?
**A.** The remaining binding at 1 µM was 97%.

**Q.** What about the remaining binding at 1 µM [6] of the same molecule?
**A.** Its remaining binding at 1 µM is 100%.

**Q.** And the remaining binding at 1 µM [7]?
**A.** The remaining binding at 1 µM was 94%.

**Q.** And the remaining binding at 1 µM [8]?
**A.** Its remaining binding at 1 µM is 89%.

**Q.** And the remaining binding at 1 µM [9]?
**A.** The remaining binding at 1 µM was 94%.

**Q.** And the “fold more potent than AZD9291” value ([10]; H1975 GI50)?
**A.** Its value is “about 170 fold”.

**Q.** What about the GI50 ([10]; Homo sapiens, NCI-H1975, H1975 (EGFRL858R/T790M), 72 hours, triplet testing) of the same molecule?
**A.** The GI50 was < 0.0003 µM.

**Q.** What about the “Caspase-3 and PARP cleavage (apoptosis)” value ([11]; EGFR wt NSCLC cell lines, 72hrs) of the same molecule?
**A.** The value was “no cleaved Caspase-3 and PARP detected”.

**Q.** And the “Caspase-3 and PARP cleavage (apoptosis)” value ([11]; H1975, HCC827, PC9 and H3255, 30nM, 24hrs)?
**A.** The value was “sufficient to induce Caspase-3 and PARP cleavage”.

**Q.** What about the remaining binding at 1 µM [12] of the same molecule?
**A.** Its remaining binding at 1 µM is 95%.

**Q.** What about the remaining binding at 1 µM [13] of the same molecule?
**A.** The remaining binding at 1 µM was 100%.

**Q.** And the remaining binding at 1 µM [14]?
**A.** The remaining binding at 1 µM was 0.8%.

**Q.** What about the remaining binding at 1 µM [15] of the same molecule?
**A.** The remaining binding at 1 µM was 100%.

**Q.** And the remaining binding at 1 µM [16]?
**A.** The remaining binding at 1 µM was 100%.

**Q.** And the remaining binding at 1 µM [17]?
**A.** The remaining binding at 1 µM was 77%.

**Q.** And the remaining binding at 1 µM [18]?
**A.** Its remaining binding at 1 µM is 100%.

**Q.** And the remaining binding at 1 µM [19]?
**A.** Its remaining binding at 1 µM is 100%.

**Q.** And the remaining binding at 1 µM [20]?
**A.** Its remaining binding at 1 µM is 69%.

**Q.** And the remaining binding at 1 µM [21]?
**A.** The remaining binding at 1 µM was 85%.

**Q.** What about the remaining binding at 1 µM [22] of the same molecule?
**A.** Its remaining binding at 1 µM is 100%.

**Q.** And the remaining binding at 1 µM [23]?
**A.** Its remaining binding at 1 µM is 92%.

**Q.** What about the remaining binding at 1 µM [24] of the same molecule?
**A.** The remaining binding at 1 µM was 100%.

**Q.** What about the remaining binding at 1 µM [25] of the same molecule?
**A.** The remaining binding at 1 µM was 70%.

**Q.** What about the remaining binding at 1 µM [26] of the same molecule?
**A.** Its remaining binding at 1 µM is 90%.

**Q.** And the remaining binding at 1 µM [27]?
**A.** The remaining binding at 1 µM was 87%.

**Q.** And the remaining binding at 1 µM [28]?
**A.** The remaining binding at 1 µM was 79%.

**Q.** What about the remaining binding at 1 µM [29] of the same molecule?
**A.** The remaining binding at 1 µM was 90%.

**Q.** And the “% control” value [30]?
**A.** Its value is 87%.

**Q.** What about the remaining binding at 1 µM [31] of the same molecule?
**A.** The remaining binding at 1 µM was 84%.

**Q.** What about the remaining binding at 1 µM [32] of the same molecule?
**A.** The remaining binding at 1 µM was 97%.

**Q.** And the remaining binding at 1 µM [33]?
**A.** The remaining binding at 1 µM was 100%.

**Q.** What about the remaining binding at 1 µM [34] of the same molecule?
**A.** The remaining binding at 1 µM was 88%.

**Q.** And the remaining binding at 1 µM [35]?
**A.** Its remaining binding at 1 µM is 89%.

**Q.** What about the IC50 ([36]; Parental BaF3, Supplementary Table 3, read-out: IC50 (anti-proliferative)) of the same molecule?
**A.** Its IC50 is 9 µM.

**Q.** What about the GI50 ([36]; Parental BaF3, 72 hours, triplet testing) of the same molecule?
**A.** Its GI50 is > 10 µM.

**Q.** What about the remaining binding at 1 µM [37] of the same molecule?
**A.** The remaining binding at 1 µM was 9.1%.

Source: PMC5392334, “Discovery and characterization of a novel irreversible EGFR mutants selective and potent kinase inhibitor CHMFL-EGFR-26 with a distinct binding mode” (Oncotarget, 2017)
